Measured values published in PubChem BioAssay (NCI).
“And” between values parts separate entries of the source, which are not always exact repeats. Equal values may be shown once.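 Dose response: 5 concentrations. Exposure: 48 h. Format: 96-well plates. Endpoint: linear interpolation; highest concentration if not reached. GI50 is the concentration that inhibits growth by half. The concentration for full growth arrest is given as TGI.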

Key:
Assay in all cases: NCI tumour cell line growth inhibition, 48 h
A498 renal = test system: A498 renal
HCT-116 colon = test system: HCT-116 colon
HCT-15 colon = test system: HCT-15 colon
HL-60(TB) leukemia = test system: HL-60(TB) leukemia
K-562 leukemia = test system: K-562 leukemia
LOX IMVI melanoma = test system: LOX IMVI melanoma
OVCAR-4 ovarian = test system: OVCAR-4 ovarian
RXF 393 renal = test system: RXF 393 renal
SF-295 CNS = test system: SF-295 CNS
HOP-92 NSCLC = test system: HOP-92 NSCLC

Row | SMILES | TGI (A498 renal) [µM] | TGI (HCT-116 colon) | TGI (HCT-15 colon) | TGI (HL-60(TB) leukemia) [µM] | TGI (K-562 leukemia) [µM] | TGI (LOX IMVI melanoma) | TGI (OVCAR-4 ovarian) | TGI (RXF 393 renal) [µM] | TGI (SF-295 CNS) [µM] | TGI (HOP-92 NSCLC) | GI50 (HCT-116 colon) | GI50 (HCT-15 colon) | GI50 (HL-60(TB) leukemia) [µM] | GI50 (HOP-92 NSCLC) [µM] | GI50 (K-562 leukemia) [µM] | GI50 (LOX IMVI melanoma) | GI50 (RXF 393 renal) | GI50 (SF-295 CNS) | GI50 (A498 renal) [µM] | GI50 (OVCAR-4 ovarian)
1 | C1CCN2CC3CONC3C2C1 (stereo not given) | > 100 | > 100 µM | > 100 µM | > 100 | > 100 | > 100 µM | > 100 µM | > 100 | > 100 | – | – | – | – | – | – | – | – | – | – | –
2 | O=CC(O)C(O)C(OC1OC(CO)C(O)C(O)C1O)C(O)CO (stereo not given) (tested in a mixture with another compound) | > 100 | > 100 µM | 54 µM | 64.1 | 98.7 | – | > 100 µM | > 100 | > 100 | > 100 µM | – | – | – | – | – | – | – | – | – | –
3 | O=C1c2ccccc2-c2c1c1ccc([N+](=O)[O-])cc1c(=O)n2CCCCl | – | > 100 µM | > 100 µM | > 100 | > 100 | > 100 µM | – | > 100 | > 100 | > 100 µM | 3.62 µM | > 100 µM | 52.4 | 22.9 | 25.7 | 3.24 µM | > 100 µM | 2.25 µM | – | –
4 | CC(C)=CC(=O)CC(=O)C(=O)NCCNC(=O)C(=O)CC(=O)C=C(C)C | > 50 | > 50 µM | > 50 µM | – | – | > 50 µM | > 50 µM | > 50 | > 50 | > 50 µM | – | – | – | – | – | – | – | – | – | –
5 | O=C(Nc1ccc(Br)cc1)Nc1cccc(Br)c1 | > 100 | – | – | – | – | – | – | > 100 | – | – | – | – | – | – | – | – | > 100 µM | – | 4.81 | –
6 | O=C(CN(/C=C/C(=O)C(F)(F)F)c1ccccc1)c1ccc(F)cc1 | – | 88.1 µM | > 100 µM | – | 52.6 | 37.6 µM | > 100 µM | > 100 | 69.6 | 90.4 µM | 25.3 µM | 25.4 µM | – | 24.8 | 18.1 | 15.5 µM | 39.8 µM | 20.8 µM | – | 42.5 µM
7 | CC1(C)CC(O)CC(C)(C)N1.CC1(C)CC(O)CC(C)(C)N1.CC1(C)CC(O)CC(C)(C)N1.CC1(C)CC(O)CC(C)(C)N1.Cl.[Ti] | > 100 | > 100 µM | > 100 µM | – | > 100 | > 100 µM | > 100 µM | > 100 | > 100 | > 100 µM | > 100 µM | > 100 µM | – | > 100 | > 100 | > 100 µM | > 100 µM | > 100 µM | > 100 | > 100 µM
8 | Oc1c(I)cc(Cl)c2cccnc12 | – | 11.1 µM and 9.05 µM | > 100 µM and 38.5 µM | 6.22 | > 100 | 39.4 µM and 24.2 µM | 13.8 µM and > 100 µM | – | – | 17.9 µM and 50.3 µM | 3.31 µM and 2.67 µM | 5.48 µM and 3.82 µM | 2.77 | – | 3.91 | 2.66 µM and 4.03 µM | 2.27 µM and 16.8 µM | 2.62 µM and 22.2 µM | – | 2.82 µM and 4.39 µM
9 | O=S(=O)(NCCCNc1nccc(-c2c(-c3cccc(F)c3)nc3occn23)n1)c1cccc2ccccc12 | > 100 | > 100 µM | > 100 µM | 72.2 | > 100 | > 100 µM | > 100 µM | – | > 100 | > 100 µM | 3.71 µM | 3.31 µM | 4.21 | > 100 | 2.87 | 4.28 µM | – | 5.5 µM | 8.36 | 7.66 µM
10 | COC(=O)c1ccc2c(c1)C(=O)c1c-2n(CCCCl)c(=O)c2cc(OC)c(OC)cc12 | – | > 100 µM | > 100 µM | – | > 100 | > 100 µM | > 100 µM | – | > 100 | – | > 100 µM | > 100 µM | – | – | > 100 | > 100 µM | – | > 100 µM | – | > 100 µM
11 | CCN(CC)CCCNc1c2ccc(Cl)cc2nc2ccc(OC)cc12 | 2.86 | 1.64 µM | 2.51 µM | – | 6.08 | 1.93 µM | 2.77 µM | 2.15 | – | 3.62 µM | 0.0307 µM | 0.0345 µM | – | 1.41 | 0.0308 | 0.0342 µM | 0.0403 µM | – | 1.51 | 0.0304 µM
12 | CCOC(=O)COc1cccc2occc(=O)c12 | > 100 | > 100 µM | > 100 µM | > 100 | > 100 | > 100 µM | > 100 µM | – | > 100 | > 100 µM | – | – | – | – | – | – | – | – | – | –
13 | COC(=O)[C@]1(C)CCCC2(C)C3=C(CCC21)CC1(CC3)SCCS1 (stereo not given in full) | > 10 | > 10 µM | > 10 µM | > 10 | > 10 | – | > 10 µM | – | – | > 10 µM | – | – | – | – | – | – | – | – | – | –
14 | CN1CC[C@]23c4c5ccc(O)c4OC2c2[nH]ncc2C[C@H]3[C@H]1C5 (stereo not given in full) | – | > 100 µM | > 100 µM | > 100 | > 100 | > 100 µM | > 100 µM | > 100 | > 100 | > 100 µM | – | – | – | – | – | – | – | – | – | –
15 | O=C(Nc1ccc(Cl)c(C(F)(F)F)c1)C(=O)c1c(O)c2ccccc2oc1=O | > 100 | > 100 µM | > 100 µM | – | > 100 | > 100 µM | > 100 µM | > 100 | > 100 | > 100 µM | – | – | – | – | – | – | – | – | – | –
16 | Cc1ccc(NC(=O)c2ccc(NC3=C(Cl)C(=O)N(Cc4ccccc4)C3=O)cc2)cc1Cl | 26.9 | 13.3 µM | 13.2 µM | 14.6 | 12 | 14 µM | 66.5 µM | – | > 100 | 11.6 µM | 3.08 µM | 2.25 µM | – | 1.65 | 2.23 | 3 µM | – | 19.9 µM | 0.854 | 14.7 µM
17 | CC(=O)OC1COC(Oc2c(C)c3c4c(c2O)[C@@H](C)CC[C@@H]4[C@@H](C)C[C@H]3C=C(C)C)C(O)C1O (stereo not given in full) | 30 | 41.3 µM | 37.9 µM | – | 27.1 | 40 µM | 86.5 µM | 42.3 | 35.3 | 36.3 µM | 16.1 µM | 17.9 µM | – | 18.7 | 10.3 | 19.1 µM | 19.8 µM | 17.9 µM | 14.7 | 25.6 µM
